Data taken from US6998403B2, “Benzoindoline compounds” (Les Laboratoires Servier, priority 2003, dated 2006).
Marks after values point to notes of the source that are not given here.

What was measured:
5-HT2C receptors = biological target: T1, 5-HT2C receptors (Homo sapiens, UniProt P28335); experiment: Determination of the affinity for 5-HT2C receptors (competition with [3H]-mesulergine); format: binding; conditions: 22° C., pH=7.7, IC50 converted into pKi
T1 sequence (P28335 33-458): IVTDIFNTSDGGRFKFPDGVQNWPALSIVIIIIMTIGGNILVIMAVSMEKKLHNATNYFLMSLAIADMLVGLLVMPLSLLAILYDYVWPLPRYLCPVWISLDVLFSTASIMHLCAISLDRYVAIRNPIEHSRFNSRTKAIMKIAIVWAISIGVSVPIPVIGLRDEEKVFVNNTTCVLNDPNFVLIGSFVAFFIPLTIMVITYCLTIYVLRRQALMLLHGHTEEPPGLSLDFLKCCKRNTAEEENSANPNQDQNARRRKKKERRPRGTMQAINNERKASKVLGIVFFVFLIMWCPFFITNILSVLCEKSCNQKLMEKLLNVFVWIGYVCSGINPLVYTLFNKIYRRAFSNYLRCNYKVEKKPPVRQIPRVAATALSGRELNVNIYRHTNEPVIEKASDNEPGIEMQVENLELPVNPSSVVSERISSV
Description: The non-specific fraction is defined in the presence of 1 μM mianserin, the latter also being the reference product for each experiment. At the end of the incubation period, the medium is filtered through GF/B-Unifilter filters pre-treated with PEI (0.1%), followed by washing three times with the incubation buffer. The radioactivity retained on the filters is determined by liquid scintillation counting. The binding isotherms are analysed by non-linear regression in order to determine the IC50 values. They are converted into pKi (where Ki is the dissociation constant).

[1] = test system: extracellular concentrations of NA, DA and ACh in the frontal cortex; experiment: Measurement of neurotransmitters in the frontal cortex of rats (microdialysis, HPLC); format: in vivo, rat; conditions: 10.0 mg/kg s.c.; for ACh, percentage area beneath the curve (%AbC ± S.E.M.): acetylcholine in frontal cortex dialysates of conscious rats; for ACh, percentage area beneath the curve (%AbC ± S.E.M.) / DA, percentage area beneath the curve (%AbC ± S.E.M.) / NA, percentage area beneath the curve (%AbC ± S.E.M.): 20 min. to 120 min. after administration; for DA, percentage area beneath the curve (%AbC ± S.E.M.): dopamine in frontal cortex dialysates of conscious rats; for change in extracellular concentration of ACh (in words) / change in extracellular concentration of DA (in words) / change in extracellular concentration of NA (in words): frontal cortex dialysates of conscious rats; for NA, percentage area beneath the curve (%AbC ± S.E.M.): noradrenaline in frontal cortex dialysates of conscious rats
Description: Measurement of Neurotransmitters in the Frontal Cortex of Rats
The surgery is performed under pentobarbital-induced anaesthesia (60 mg/kg, i.p.). Male Wistar rats, 200–220 g (Iffa Credo, Arbresle, France), are placed in a Kopf stereotaxic device and a cannula guide (CMAMicrodialyse AB, Stockholm, Sweden) is implanted in the frontal cortex at the coordinates (in mm): anteroposterior: +2.2, lateral: ±0.6, ventral deviation: −0.2. The rats are placed in separate cages and recover from the anaesthesia over 5 days. On the day of the dialysis, a Cuprophan CMA/11 probe (length: 4 mm; ext. dia.: 0.24 mm) is introduced into the guide and perfused at 1 μl/min. with a solution of NaCl: 147.2 mM; KCl: 4 mM; CaCl2: 2.3 mM adjusted to pH 7.3 with a phosphate buffer. Two hours after implantation, samples of dialysate are collected every 20 minutes for 4 hours. Three baseline samples are collected before administration of the drug.
Noradrenaline (NA) and dopamine (DA) are measured as follows: 20 μl of dialysate sample are diluted with 20 μl of mobile phase (NaH2PO4: 75 mM, EDTA: 20 μM, sodium decanesulphonate: 1 mM, methanol: 17.5%, triethylamine: 0.01%, pH: 5.70) and 33 μl are analysed by HPLC using, for separation, an inverse-phase column (Hypersil C 18, 150×4.6 mm; particle size 5 μm) thermostatically controlled at 43° C. and, for quantification, a coulometric detector (ESA5014, Coulochem II, ESA, Chelmsford, USA). The potential of the first electrode is −90 mV (reduction) and that of the second +280 mV (oxidation). The mobile phase flow rate is 2 ml/min. The sensitivity limit for NA and DA is 0.2 pg.
Acetylcholine (ACh) is measured and quantified in the absence of acetylcholine esterase (AChE) inhibitor 20 μl of dialysate sample are collected in 10 μl of 0.01% acetic acid. 20 μl aliquots are analysed by HPLC. The mobile phase is composed of Na2HPO4: 50 mM and ProClin: 0.5% (BAS, Congleton, UK), pH 8.2. The stationary phase is composed of a cation-exchange column (Sepstik, 530×1.0 mm, particle size 10 μm, BAS), a pre-column (choline oxidase/catalase enzymatic reactor, 55×1 mm, BAS) and a post-column (choline oxidase/AChE enzymatic reactor, 50×1 mm, BAS). The system is maintained at 35° C. Quantification is carried out by means of an amperometric detector (LC-4B, BAS). A layer of peroxidase-redox polymer is deposited on the vitreous carbon working electrode (MF2098, BAS). The potential of that electrode is +100 mV relative to the Ag/AgCl reference electrode. The mobile phase flow rate is 0.14 ml/min. The sensitivity limit for ACh is 0.1 pg.
The levels of NA, DA and ACh are expressed as the percentage area beneath the curve (% AbC) ±S.E.M. of times 20 min. to 120 min. after administration of the drug. The effects of the compound of Example 1 are compared (ANOVA) with those obtained in animals treated with the solvent or with 6-chloro-5-fluoro-N-[4-methoxy-3-(4-methyl-1-piperazinyl)phenyl]-1-indoline-carboxamide.

Structure (SMILES) | Ki (5-HT2C receptors) [nM] | ACh, percentage area beneath the curve (%AbC ± S.E.M.) [1] | DA, percentage area beneath the curve (%AbC ± S.E.M.) [1] | change in extracellular concentration of ACh (in words) [1] | change in extracellular concentration of DA (in words) [1] | change in extracellular concentration of NA (in words) [1] | NA, percentage area beneath the curve (%AbC ± S.E.M.) [1]
COc1ccc(NC(=O)N2CCc3c2ccc2ccccc32)cc1N1CCN(C)CC1.Cl [Example 1, N-[4-Methoxy-3-(4-methyl-1-piperazinyl)phenyl]-1,2-dihydro-3H-benzo[e]indole-3-carboxamide Hydrochloride] | 6.31 | +107.7 ± 13.5^a,b %AbC | +52.9 ± 6.6^a %AbC | substantial increase | substantial increase | substantial increase | +105.4 ± 7.3^a,b %AbC
COc1ccc(NC(=O)N2CCc3cc(F)c(Cl)cc32)cc1N1CCN(C)CC1 [Example 11 of application EP-1170288, 6-chloro-5-fluoro-N-[4-methoxy-3-(4-methyl-1-piperazinyl)phenyl]-1-indolinecarboxamide] | 39.8 | +15.1 ± 12.3 %AbC | +19.5 ± 4.9 %AbC | no change | very modest increase | very modest increase | +39.8 ± 6.7 %AbC
